Reference: patent publication US20260274829A1, “NEW E3 UBIQUITIN LIGASE LIGAND, PROTEIN DEGRADATION AGENT AND USE THEREOF” (GLUETACS THERAPEUTICS (SHANGHAI) CO., LTD., priority 2023, published 2026)

Each molecule was assayed against T1, human Cereblon WT GST-tagged protein (Homo sapiens, UniProt Q96SW2) (assay: CRBN binding, HTRF CEREBLON BINDING kit). Details: CRBN binding, HTRF CEREBLON BINDING kit.
T1 construct: purchased CISBIO 64BDCRBNPEH
How it was run: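 HTRF competition in which test compounds displace a Thalidomide-Re tracer from GST-tagged human Cereblon WT, detected with a GST Eu antibody. Incubation lasted 3 hours at room temperature, with emission read at 620 and 665 nm. Inhibition rate was derived from 665/620 ratios relative to blank and solvent control wells.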

T1 sequence (Q96SW2 whole entry): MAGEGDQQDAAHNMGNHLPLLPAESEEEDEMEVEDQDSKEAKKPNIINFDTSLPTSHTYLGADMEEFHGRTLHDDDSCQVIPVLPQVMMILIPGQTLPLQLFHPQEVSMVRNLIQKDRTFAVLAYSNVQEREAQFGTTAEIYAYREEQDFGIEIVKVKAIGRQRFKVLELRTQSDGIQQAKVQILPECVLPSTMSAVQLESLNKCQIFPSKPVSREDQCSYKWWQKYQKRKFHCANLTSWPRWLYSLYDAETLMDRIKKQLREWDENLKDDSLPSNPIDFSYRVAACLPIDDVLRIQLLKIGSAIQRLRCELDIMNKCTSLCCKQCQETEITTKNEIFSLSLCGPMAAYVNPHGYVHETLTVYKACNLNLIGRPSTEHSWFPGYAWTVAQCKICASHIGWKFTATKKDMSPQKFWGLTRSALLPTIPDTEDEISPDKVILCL

SMILES	IC50
COc1cc(N2CCC(N3CCN(Cc4cc(C5CCC(=O)NC5=O)cnc4F)CC3)CC2)ccc1Nc1ncc(Cl)c(Nc2ccccc2P(C)(C)=O)n1 (centres unmarked) [GT-07611, 3-(5-((4-(1-(4-((5-chloro-4-((2-(dimethylphosphoryl)phenyl)amino)pyrimidin-2-yl)amino)-3-methoxyphenyl)piperidin-4-yl)piperazin-1-yl)methyl)-6-fluoropyridin-3-yl)piperidine-2,6-dione]	500 to 1000 nM
O=C1CCN(c2ccc(CN3CCN(C4CCN(c5ccc(-c6cc(F)c7c(c6)C(=O)N(C(C(=O)Nc6nccs6)c6ncn8c6CCC8)C7)cc5)CC4)CC3)nc2)C(=O)N1 (centres unmarked) [GT-06246, 2-(6,7-dihydro-5H-pyrrolo[1,2-c]imidazol-1-yl)-2-(6-(4-(4-(4-((5-(2,4-dioxotetrahydropyrimidin-1(2H)-yl)pyridin-2-yl)methyl)piperazin-1-yl)piperidin-1-yl)phenyl)-4-fluoro-1-oxoisoindolin-2-yl)-N-(thiazol-2-yl)acetamide]	< 500 nM
COc1cc2nn(C3CCN(Cc4ccc(N5CCC(=O)NC5=O)cc4F)CC3)cc2cc1NC(=O)c1cccc(C(F)(F)F)c1 [GT-04753, N-(2-(1-(4-(2,4-dioxotetrahydropyrimidin-1(2H)-yl)-2-fluorobenzyl)piperidin-4-yl)-6-methoxy-2H-indazol-5-yl)-3-(trifluoromethyl)benzamide]	1000 to 1900 nM
O=C1CCC(c2cncc(CN3CCN(c4ccc(-c5cc(F)c6c(c5)C(=O)N(C(C(=O)Nc5nccs5)c5ncn7c5CCC7)C6)cc4)CC3)c2)C(=O)N1 (centres unmarked) [GT-07472, 2-(6,7-dihydro-5H-pyrrolo[1,2-c]imidazol-1-yl)-2-(6-(4-(4-((5-(2,6-dioxopiperidin-3-yl)pyridin-3-yl)methyl)piperazin-1-yl)phenyl)-4-fluoro-1-oxoisoindolin-2-yl)-N-(thiazol-2-yl)acetamide]	< 500 nM
O=C1CCN(c2ccc(CN3CCC(N4CCN(c5ccc(-c6cc(F)c7c(c6)C(=O)N(C(C(=O)Nc6nccs6)c6ncn8c6CCC8)C7)cc5)CC4)CC3)cc2)C(=O)N1 (centres unmarked) [GT-06327, 2-(6,7-dihydro-5H-pyrrolo[1,2-c]imidazol-1-yl)-2-(6-(4-(4-(1-(4-(2,4-dioxotetrahydropyrimidin-1(2H)-yl)benzyl)piperidin-4-yl)piperazin-1-yl)phenyl)-4-fluoro-1-oxoisoindolin-2-yl)-N-(thiazol-2-yl)acetamide]	500 to 1000 nM
O=C1CCC(Nc2cccc(CN3CCC(N4CCN(c5ccc(-c6cc(F)c7c(c6)C(=O)N(C(C(=O)Nc6nccs6)c6ncn8c6CCC8)C7)cc5)CC4)CC3)c2)C(=O)N1 (centres unmarked) [GT-06331, 2-(6,7-dihydro-5H-pyrrolo[1,2-c]imidazol-1-yl)-2-(6-(4-(4-(1-(3-((2,6-dioxopiperidin-3-yl)amino)benzyl)piperidin-4-yl)piperazin-1-yl)phenyl)-4-fluoro-1-oxoisoindolin-2-yl)-N-(thiazol-2-yl)acetamide]	1000 to 1900 nM
O=C1CCC(c2ccc(CN3CCC(n4cc(NC(=O)c5cnn6ccc(N7C[C@H]8C[C@@H]7CO8)nc56)c(C(F)F)n4)CC3)cc2)C(=O)N1 (stereo partly drawn) [GT-05050, 5-((1R,4R)-2-oxa-5-azabicyclo[2.2.1]heptan-5-yl)-N-(3-(difluoromethyl)-1-(1-(4-(2,6-dioxopiperidin-3-yl)benzyl)piperidin-4-yl)-1H-pyrazol-4-yl)pyrazolo[1,5-a]pyrimidine-3-carboxamide]	< 500 nM
CCc1cc2c(cc1N1CCC(N3CCN(Cc4ccc(N5CCC(=O)NC5=O)cc4)CC3)CC1)C(C)(C)c1[nH]c3cc(C#N)ccc3c1C2=O [GT-07307, 8-(4-(4-(4-(2,4-dioxotetrahydropyrimidin-1(2H)-yl)benzyl)piperazin-1-yl)piperidin-1-yl)-9-ethyl-6,6-dimethyl-11-oxo-6,11-dihydro-5H-benzo[b]carbazole-3-carbonitrile]	500 to 1000 nM
CN(C)C/C=C/C(=O)Nc1cc2c(Nc3ccc(F)c(Cl)c3)ncnc2cc1O[C@H]1CCOC1 [afatinib]	> 10000 nM
CN(Cc1cc(C2CCC(=O)NC2=O)cnc1F)C1CCN(c2ccc(-c3cc(F)c4c(c3)C(=O)N(C(C(=O)Nc3nccs3)c3ncn5c3CCC5)C4)cc2)CC1 (centres unmarked) [GT-07560, 2-(6,7-dihydro-5H-pyrrolo[1,2-c]imidazol-1-yl)-2-(6-(4-(4-(((5-(2,6-dioxopiperidin-3-yl)-2-fluoropyridin-3-yl)methyl)(methyl)amino)piperidin-1-yl)phenyl)-4-fluoro-1-oxoisoindolin-2-yl)-N-(thiazol-2-yl)acetamide]	< 500 nM
O=C1CCN(c2cccc(CN3CCC(n4cc(NC(=O)c5coc(-c6ccnc(NCC7CC7)c6)n5)c(C(F)F)n4)CC3)c2)C(=O)N1 [GT-04965, 2-(2-((cyclopropylmethyl)amino)pyridin-4-yl)-N-(3-(difluoromethyl)-1-(1-(3-(2,4-dioxotetrahydropyrimidin-1(2H)-yl)benzyl)piperidin-4-yl)-1H-pyrazol-4-yl)oxazole-4-carboxamide]	500 to 1000 nM
Nc1nnc(-c2ccccc2O)cc1N1CCN(Cc2cccc(N3CCC(=O)NC3=O)c2)CC1 [GT-04962, 1-(3-((4-(3-amino-6-(2-hydroxyphenyl)pyridazin-4-yl)piperazin-1-yl)methyl)phenyl)dihydropyrimidine-2,4(1H,3H)-dione]	1000 to 1900 nM
COc1cc2nn(C3CCN(Cc4ccc(C5CCC(=O)NC5=O)c(F)c4)CC3)cc2cc1NC(=O)c1cccc(C(F)(F)F)c1 (centres unmarked) [GT-04748, N-(2-(1-(4-(2,6-dioxopiperidin-3-yl)-3-fluorobenzyl)piperidin-4-yl)-6-methoxy-2H-indazol-5-yl)-3-(trifluoromethyl)benzamide]	1000 to 1900 nM
CN(C)C(=O)c1cc2cnc(Nc3ccc(N4CCN(Cc5cccc(N6CCC(=O)NC6=O)c5)CC4)cn3)nc2n1C1CCCC1 [GT-06341, 7-cyclopentyl-2-((5-(4-(3-(2,4-dioxotetrahydropyrimidin-1(2H)-yl)benzyl)piperazin-1-yl)pyridin-2-yl)amino)-N,N-dimethyl-7H-pyrrolo[2,3-d]pyrimidine-6-carboxamide]	500 to 1000 nM
O=C1CCC(Nc2cccc(CN3CCC(n4cc(NC(=O)c5cnn6ccc(N7C[C@H]8C[C@@H]7CO8)nc56)c(C(F)F)n4)CC3)c2)C(=O)N1 (stereo partly drawn) [GT-05052, 5-((1R,4R)-2-oxa-5-azabicyclo[2.2.1]heptan-5-yl)-N-(3-(difluoromethyl)-1-(1-(3-((2,6-dioxopiperidin-3-yl)amino)benzyl)piperidin-4-yl)-1H-pyrazol-4-yl)pyrazolo[1,5-a]pyrimidine-3-carboxamide]	1000 to 1900 nM
O=C1CCN(c2ccc(CN3CCC(n4cc(NC(=O)c5cnn6ccc(N7C[C@H]8C[C@@H]7CO8)nc56)c(C(F)F)n4)CC3)cc2)C(=O)N1 [GT-05029, 5-((1R,4R)-2-oxa-5-azabicyclo[2.2.1]heptan-5-yl)-N-(3-(difluoromethyl)-1-(1-(4-(2,4-dioxotetrahydropyrimidin-1(2H)-yl)benzyl)piperidin-4-yl)-1H-pyrazol-4-yl)pyrazolo[1,5-a]pyrimidine-3-carboxamide]	500 to 1000 nM
CN(Cc1cccc(NC2CCC(=O)NC2=O)c1)C1CCN(c2ccc(-c3cc(F)c4c(c3)C(=O)N(C(C(=O)Nc3nccs3)c3ncn5c3CCC5)C4)cc2)CC1 (centres unmarked) [GT-05284, 2-(6,7-dihydro-5H-pyrrolo[1,2-c]imidazol-1-yl)-2-(6-(4-(4-((3-((2,6-dioxopiperidin-3-yl)amino)benzyl)(methyl)amino)piperidin-1-yl)phenyl)-4-fluoro-1-oxoisoindolin-2-yl)-N-(thiazol-2-yl)acetamide]	< 500 nM
O=C1CCN(c2ccc(CN3C[C@@H]4C[C@H]3CN4c3ccc(-c4cc(F)c5c(c4)C(=O)N(C(C(=O)Nc4nccs4)c4ncn6c4CCC6)C5)cc3)nc2)C(=O)N1 (stereo partly drawn) [GT-05119, 2-(6,7-dihydro-5H-pyrrolo[1,2-c]imidazol-1-yl)-2-(6-(4-((1S,4S)-5-((5-(2,4-dioxotetrahydropyrimidin-1(2H)-yl)pyridin-2-yl)methyl)-2,5-diazabicyclo[2.2.1]heptan-2-yl)phenyl)-4-fluoro-1-oxoisoindolin-2-yl)-N-(thiazol-2-yl)acetamide]	500 to 1000 nM
Cc1nc2c(F)cc(-c3nc(Nc4ccc(CN5CCN(Cc6ccc(N7CCC(=O)NC7=O)cc6)CC5)cn4)ncc3F)cc2n1C(C)C [GT-06665, 1-(4-((4-((6-((5-fluoro-4-(4-fluoro-1-isopropyl-2-methyl-1H-benzo[d]imidazol-6-yl)pyrimidin-2-yl)amino)pyridin-3-yl)methyl)piperazin-1-yl)methyl)phenyl)dihydropyrimidine-2,4(1H,3H)-dione]	1000 to 1900 nM
Cc1ccc(-c2c(C)noc2C)cc1N(CC1CCN(Cc2cccc(N3CCC(=O)NC3=O)c2)CC1)c1ccc(C2(C#N)CC2)cc1 [GT-04842, 1-(4-((5-(3,5-dimethylisoxazol-4-yl)-2-methylphenyl)((1-(3-(2,4-dioxotetrahydropyrimidin-1(2H)-yl)benzyl)piperidin-4-yl)methyl)amino)phenyl)cyclopropane-1-carbonitrile]	1000 to 1900 nM
Cc1ccc(-c2c(C)noc2C)cc1N(CC1CCN(Cc2ccc(N3CCC(=O)NC3=O)cc2)CC1)c1ccc(C2(C#N)CC2)cc1 [GT-04844, 1-(4-((5-(3,5-dimethylisoxazol-4-yl)-2-methylphenyl)((1-(4-(2,4-dioxotetrahydropyrimidin-1(2H)-yl)benzyl)piperidin-4-yl)methyl)amino)phenyl)cyclopropane-1-carbonitrile]	500 to 1000 nM
COc1cc2nn(C3CCN(Cc4ccc(C5CCC(=O)NC5=O)c(F)c4)CC3)cc2cc1NC(=O)c1cccc(C(F)(F)F)n1 (centres unmarked) [GT-04762, N-(2-(1-(4-(2,6-dioxopiperidin-3-yl)-3-fluorobenzyl)piperidin-4-yl)-6-methoxy-2H-indazol-5-yl)-6-(trifluoromethyl)picolinamide]	1000 to 1900 nM
CCc1cc2c(cc1N1CCN(Cc3ccc(N4CCC(=O)NC4=O)cc3)CC1)C(C)(C)c1[nH]c3cc(C#N)ccc3c1C2=O [GT-07324, 8-(4-(4-(2,4-dioxotetrahydropyrimidin-1(2H)-yl)benzyl)piperazin-1-yl)-9-ethyl-6,6-dimethyl-11-oxo-6,11-dihydro-5H-benzo[b]carbazole-3-carbonitrile]	1000 to 1900 nM
